This is an account of results in patent publication US20150073008A1, “Topical Application of Vinca Alkaloids for the Treatment of Actinic Keratosis” (Merz Pharma GmbH & Co. KGaA, priority 2013, published 2015).

Data set [1] relates to SCC-111 cells. Particulars: for DCF-value: after repeating the experiments several times.
Data set [2] deals with proliferating and non-proliferating cells. In words: Comparative test of cell density as a function of time (normal and high cell density). It counts as cell-based.
In data set [3] the test system is SCC-111 cells. In words: cells. The note with it: Homo sapiens, read-out: in vitro IC50-value (in SCC-111 cells).
A short description of data set [4]: Dermal absorption study with human skin (Franz diffusion cells, 3H-API). The note with it: different concentrations and formulations (cream, liposomes, hydro-tops).
Method: The vinca alkaloids were tested in different concentrations and in different formulations (such as cream, liposomes and hydro-tops).
Skin Preparations: Female human abdominal skins from plastic surgery were used. The subcutaneous fatty tissue was removed from the skin and then frozen at −20° C. with aluminium foil packed for later tests. Before use, skin disks of 18 mm diameter were punched, cleaned with PBS (phosphate buffered saline, pH 7.4, 10 mM) and thaw with the stratum corneum (SC) side up open to the atmosphere and the dermal side bathed with PBS for 2 hrs.
The dermal side of the skin was exposed to the receptor fluid (PBS) and the SC remained in contact with the donor compartment left dry and opened to the atmosphere. The temperature of the water bath was maintained at 37±0.1° C. The receptor solution was continuously stirred at 700 rpm with a small bar magnet placed inside the cell. Ten μl of Hydro-Tops or liposomes or 10 mg of the cream formulation were applied onto the skin's surface and uniformly spread by pipettes or spatula. The spatula was weighted again after the application of the cream to determine the applied dose. This means an application dose of 1 μg API per square cm. Samples (0.7 ml) were taken from the receptor fluid at 3, 6, 12, 18 and 24 hrs after application. At each point, the receptor cell content was replaced by 0.7 ml of fresh PBS solution. Three replicates were used for the studies (same skin preparations)
Tape Stripping: The distribution of API in the stratum corneum was determined by the tape stripping technique. After 24 hours the skin was taken, stretched and mounted with pins on cork discs and covered with aluminium mask with a central hole of 8 mm in diameter. […]
Measurement of 3H-API: The samples (standards, strips and fluids) were mixed with 12 ml Rotiszint eco plus (scintillation cocktail purchased from Carl Roth) and carefully vortexed for at least 1 minute. […] The activity in each sample was determined in a scintillation counter (Tri-Carb 2910TR Liquid Scintillation Analyzer; Perkin Elmer) by a standardized protocol.
Data set [5] in a line: Stability at pH 5.5. Type of data set: physicochemical. The protocol:
Some topical formulations may have a reduced stability at a temperature of 37° C. and a pH-value of 7 or more, e.g. a pH-value of 7.4.

Data set [6] has as its system human skin (Leiden epidermal skin). In words: Methylthiazol Tetrazolium-Assay (MTT) skin irritation, in vitro human skin model. Particulars: doses of 100-times the in vitro IC50-values; irritant = metabolic activity of skin model reduced to ≦50%. Type of data set: cell-based. An excerpt:
This leads to the option to apply the vinca-compositions not only to single affected skin lesions (“spots”) but also to larger areas of the skin, e.g. for “field treatment”, and often even >5% (or >10%) of the skin surface (of the individual).

A short description of data set [7]: Solubility. The note with it: pH 6.5.
Setting [8] is: IC50 in 0% FBS divided by IC50 in 20% FBS, SCC-111 cells.
[9] abbreviates: read-out: in vitro IC50-value (in SCC-111 cells), SCC-111 cells, serum condition not stated.

What is called pIC50 is −log10 of the IC50, conventionally taken in molar units.

pIC50: −log10 of the molar value. Structures can show the parent of a compound that is named as a salt. Where two headings read alike, the source gives them in different places.

The compound `COc1cccc2c1C(=O)c1c(O)c3c(c(O)c1C2=O)C[C@@](O)(C(=O)CO)C[C@@H]3O[C@H]1C[C@H](N)[C@@H](O)[C@H](C)O1` [Epirubicin, Epirubicin HCL] gave a DCF-value in data set [1] (setting [8]) of 6.05.
Turning to `O=c1[nH]cc(F)c(=O)[nH]1` [Example 5-FU, 5-Fluorouracil], the DCF-value in data set [1] (setting [8]) is listed as 0.73. Also, the “effect on number of cells at normal (proliferating) and high (non-proliferating) cell density” value in data set [2] is reported as “cells were affected, independent of their proliferation-status”. For the same compound, in data set [3], the pIC50 is 6.02.
`COc1cc([C@@H]2c3cc4c(cc3[C@@H](O[C@@H]3O[C@@H]5CO[C@@H](c6cccs6)O[C@H]5[C@H](O)[C@H]3O)[C@H]3COC(=O)[C@H]23)OCO4)cc(OC)c1O` [Teniposide] showed a DCF-value in data set [1] (setting [8]) of 5.76.
Compound `CC[C@]1(O)C[C@H]2CN(CCc3c([nH]c4ccccc34)[C@@](C(=O)OC)(c3cc4c(cc3OC)N(C=O)[C@H]3[C@@](O)(C(=O)OC)[C@H](OC(C)=O)[C@]5(CC)C=CCN6CC[C@]43[C@@H]65)C2)C1` [Vincristine, Vincristine sulfate] yielded a DCF-value in data set [1] (setting [8]) of 5.86. Further, the “dermal absorption (in words)” value in data set [4] was “good dermal absorption”. Further, in data set [5] (buffer, 168 h, pH 5.5), the “stability (compound remaining)” value came to 99.6%. The “skin irritation rating in MTT assay” value in data set [6] is given as “not rated as irritant”. Under “pH 5.5”, this compound showed a solubility in water of 0.57 % by weight. Further, the pIC50 in data set [3] is 9.04.
In turn, `CC[C@]1(O)C[C@@H]2CN(CCc3c([nH]c4ccccc34)[C@@](C(=O)OC)(c3cc4c(cc3OC)N(C)[C@H]3[C@@](O)(C(N)=O)[C@H](O)[C@]5(CC)C=CCN6CC[C@]43[C@@H]65)C2)C1` [Vindesine, Vindesine sulfate hydrate] showed a DCF-value in data set [1] (setting [8]) of 11.43. Also, the “DCF-value (differential cytotoxicity factor) from FIGS. 1 and 2” value in data set [1] (IC50 in 0% FBS divided by IC50 in 20% FBS, single example experiment) was more than 10. Moreover, the pIC50 in data set [1] (read-out: IC50-value, 0% FBS medium cultivated cells (FIG. 2), SCC-111, 0% FBS (low proliferation), DNA-content, 72 hours) is 8.46; in data set [1] (read-out: IC50-value, 20% FBS medium cultivated cells (FIG. 1), SCC-111, 20% FBS (high proliferation), DNA-content, 72 hours), 9.47; in data set [1] (setting [9]), 9.24. Also, the “dermal absorption (in words)” value in data set [4] is on record as “good dermal absorption”. For the same compound, in data set [5] (buffer, 168 h, pH 5.5), the “stability (compound remaining)” value is given as 98.8%. In addition, the “skin irritation rating in MTT assay” value in data set [6] is given as “not rated as irritant”.
In the case of `CCC1=C[C@@H]2CN(C1)Cc1c([nH]c3ccccc13)[C@@](C(=O)OC)(c1cc3c(cc1OC)N(C)[C@H]1[C@@](O)(C(=O)OC)[C@H](OC(C)=O)[C@]4(CC)C=CCN5CC[C@]31[C@@H]54)C2` [Vinorelbine], the DCF-value in data set [1] (setting [8]) is 6.42. Also, in data set [4], the “dermal absorption (in words)” value is given as “good dermal absorption”. Moreover, the “stability (compound remaining)” value in data set [5] (buffer, 168 h, pH 5.5) is on record as 99.5%. Moreover, the “skin irritation rating in MTT assay” value in data set [6] is recorded as “not rated as irritant”. This compound also showed a solubility (pH 6.5) of 0.7%. In data set [3], the pIC50 was 8.87.
On to Vinblastine sulfate hydrate, for which the DCF-value in data set [1] (setting [8]) came out at 19.87. The pIC50 in data set [1] (setting [9]) was 9.06. The “stability (compound remaining)” value in data set [5] (pH 5.5, test for 7 days, 5° C.) came out at 97%. In data set [7], the solubility was 0.25%. Besides, in data set [6], the “skin irritation rating in MTT assay” value is on record as “not rated as irritant”.
